Source: patent publication US20090142429A1, “SILICIBACTER SP. STRAIN USEFUL FOR GENETIC TRANSFORMATION OF MARINE ALGAE AND PRODUCTION OF ANTIBIOTIC AGENTS” (UNIVERSITY OF MARYLAND BIOTECHNOLOGY INSTITUTE, priority 2005, published 2009)
Values joined by “and” are separate entries in the source; they are usually repeats but may differ in a detail not shown here. Identical values can stand only once.

Legend:
[1] = tested on: Silicibacter sp. strain TM1040; assay: Chemotaxis plate screening assay (change in motile colony morphology); type: cell-based; details: for Change in morphology with carbon source Alanine / Change in morphology with carbon source Glucose / Change in morphology with carbon source Glycerol / Change in morphology with carbon source Succinate: BM motility agar; for Change in morphology with carbon source Alanine: alanine as single carbon source; for Change in morphology with carbon source Glucose: glucose as single carbon source; for Change in morphology with carbon source Glycerol: glycerol as single carbon source; for Change in morphology with carbon source Succinate: succinate as single carbon source; as to Change in morphology with carbon source Alanine: key: −: minus indicates no change compared to distilled water or no attractant controls; +: either one or two pluses indicates moderate to strong alteration in motile colony phenotype (respectively); ++: either one or two pluses indicates moderate to strong alteration in motile colony phenotype (respectively); as to Change in morphology with carbon source Glucose: key: −: minus indicates no change compared to distilled water or no attractant controls; +: either one or two pluses indicates moderate to strong alteration in motile colony phenotype (respectively); ++: either one or two pluses indicates moderate to strong alteration in motile colony phenotype (respectively); as to Change in morphology with carbon source Glycerol: key: −: minus indicates no change compared to distilled water or no attractant controls; +: either one or two pluses indicates moderate to strong alteration in motile colony phenotype (respectively); ++: either one or two pluses indicates moderate to strong alteration in motile colony phenotype (respectively); as to Response: change in motile colony morphology of TM1040 in response to attractants, compared to the control: key: −: minus indicates no change compared to distilled water or no attractant controls; +: either one or two pluses indicates moderate to strong alteration in motile colony phenotype (respectively); ++: either one or two pluses indicates moderate to strong alteration in motile colony phenotype (respectively)
Procedure: Following 36 h of incubation, a putative attractant was placed approximately 5 cm from the site of inoculation (or 2.5 cm in front of the periphery of motile cells). Possible chemoattractant compounds were administered as either a sterile solid or concentrated stock solutions. The cells were further incubated for 16 h to allow for additional outward movement, at which time measurement of diameter, shape, and chemotaxis rings internal to the motile colony were made.
[…] Bacteria inoculated into the center of the agar consume nutrients and create a concentration gradient that increases outward from the point of inoculation. The bacteria sense the increasing gradient and swim outwards, seeking higher concentrations of nutrients, which is manifested as a symmetrical “motile” colony. If an attractant is placed at a short distance in front of the advancing motile colony, it forms a second gradient moving towards the oncoming cells that will affect the symmetry of the colony by reducing the net outward swimming of the bacteria.

[2] = tested on: Silicibacter sp. strain TM1040; assay: Quantitative capillary chemotaxis assay; type: cell-based; details: for response factor (mean): pure compounds, FIG. 12, capillaries filled with 2 μM or 200 μM attractant; for mean concentration of bacteria in methionine-filled capillaries: starved cells
Description: The cells were pelleted by centrifugation at 4,000×g in a tabletop centrifuge (Centra-CL2; International Equipment Company), the supernatant was discarded, and the pellet was resuspended in chemotaxis buffer (CB) (15 g of ASW, 6 g of Tris-HCl per liter [pH 7.6]) to the same OD. Five hundred microliters of washed cells was placed in one of the wells of the Palleroni chamber, followed by a 1-μl capillary (Microcaps; Drummond) filled with a putative attractant diluted in CB. This process was repeated for each of the four wells in the chamber. A capillary filled with CB only was included in each experiment as a negative control. Depending on the experiment, capillaries remained in the chambers for 0.5 to 2 h, after which time they were removed, and the contents of each capillary were serially diluted in CB. Final dilutions were then spread on HIASW agar plates and incubated for 16 h at 30° C. The concentration of TM1040 in each capillary was derived by counting the CFU on each plate and multiplying by the appropriate dilution factor. […]

[3] = tested on: Silicibacter sp. strain TM1040; assay: Capillary assay: reduction in chemotaxis toward P. piscicida homogenates by externally supplied attractant; type: cell-based; details: for % Reduction in CFU per capillary compared to the control / No. of bacteria per capillary (CFU · 10^4), attractant added to external buffer: 200 μM attractant in external buffer; for No. of bacteria per capillary (CFU · 10^4), attractant added to external buffer: SD in parentheses; for mean number of bacteria in the untreated capillaries: untreated homogenate, attractant supplied externally in the buffer
Procedure: The capillary assay was also used to measure the reduction in chemotaxis through competition when a known attractant was supplied exogenously (i.e., outside the capillary). In this variation, the quantitative capillary method was used, but a known attractant was included in the CB used to suspend the washed cells. A capillary containing a mixture of potential chemoattractant molecules was then placed in the chamber and incubated as described earlier. At the completion of the assay, the percent reduction in chemotaxis was calculated using the following formula: % reduction=[1−(CFU ml^−1exogenous/CFU ml^−1control)]×(100).
Dinoflagellates and Rhodomonas sp. were grown to late exponential phase (ca. 10^5 to 10^6 cells per ml), and the cell density was measured using a Coulter Counter (model M/SZRII; Beckman Coulter). Dinoflagellates were harvested after starvation of the culture to remove Rhodomonas prey algae, which was confirmed by microscopy. The cell densities in P. piscicida and Rhodomonas cultures were normalized to 10^5 cells per ml, and each culture was then pelleted by centrifugation at 4,000×g and 4° C. for 10 min. The supernatant was removed, and the pellets were separately resuspended with either 1 ml of ice-cold distilled water or CB. The cells were homogenized by sonication (Sonic Dismembrator; Fisher), and cell disruption was assessed by microscopy. To examine the heat sensitivity of chemotaxis elicitors, an aliquot of each homogenate was heated to 80° C. for 15 min prior to the assay. All homogenates were then stored at −20° C. When required, the homogenates were thawed, held on ice, and used in the capillary assay as described.

[4] = Destruction of DMSP by heating (GC-FID); type: physicochemical
Procedure: The concentration of DMSP in 1 ml-samples of heated or boiled 200 μM DMSP and in heated and untreated P. piscicida homogenates was measured using gas chromatography with flame ionization detection, as previously described.
Destruction of 200 μM DMSP in CB was assessed after heating the samples to either 80 or 100° C. for 15 min. At both temperatures, negligible (<2%) loss of DMSP was observed.
An alternative explanation for why heat reduced the chemoattractant quality of the homogenates is that heat acts indirectly through an intermediate to inactivate DMSP. This hypothesis predicts that the concentration of DMSP decreases when a homogenate is heated. The DMSP concentration in untreated and heated homogenates was measured. In untreated P. piscicida homogenates the mean concentration of DMSP was 8.21±1.2 μM. After the homogenate was heated, the concentration of DMSP fell below the level of detectability (<1 μM).

[5] = heated (80° C. for 15 min) P. piscicida homogenate
[6] = untreated P. piscicida homogenate

| SMILES | Response: change in motile colony morphology of TM1040 in response to attractants, compared to the control ([1]; BM glycerol motility agar) | response factor (mean) [2] | chemotactic response of TM1040 in plate assay ([1]; BM glycerol motility agar) | Change in morphology with carbon source Alanine [1] | Change in morphology with carbon source Glucose [1] | Change in morphology with carbon source Glycerol [1] | Change in morphology with carbon source Succinate [1] | % Reduction in CFU per capillary compared to the control [3, 5] | No. of bacteria per capillary (CFU · 10^4), attractant added to external buffer [3, 5] | % Reduction in CFU per capillary compared to the control [3, 6] | No. of bacteria per capillary (CFU · 10^4), attractant added to external buffer [3, 6] | mean number of bacteria in the untreated capillaries [3] | also measured |
| --- | --- | --- | --- | --- | --- | --- | --- | --- | --- | --- | --- | --- | --- |
| NCC(=O)O [Glycine] | + | ca. 3.5 |  |  |  |  |  |  |  |  |  |  |  |
| O=C(O)CCC(=O)C(=O)O [Alpha-ketoglutarate] | − | none were found to be significant chemoattractants | no response | − | − | − | + |  |  |  |  |  |  |
| CSCC[C@H](N)C(=O)O [methionine] | ++ | 9.8 | significant effects on the periphery of the motile colony |  |  |  |  | 48% | 1.80 (±0.11) CFU · 10^4 | 58% | 3.03 (±0.32) CFU · 10^4 | 3.03×10^4 CFU per ml | mean concentration of bacteria in methionine-filled capillaries ([2]; 0.5 h, 200 μM): 5.3×10^7 CFU per ml; mean concentration of bacteria in methionine-filled capillaries ([2]; 1 h, 200 μM): 1.8×10^8 CFU per ml; mean concentration of bacteria in methionine-filled capillaries ([2]; 1.5 h, 200 μM): 2.4×10^8 CFU per ml; mean concentration of bacteria in methionine-filled capillaries ([2]; 2 h, 200 μM): 2.4×10^8 CFU per ml; maximum mean concentration of bacteria in methionine-filled capillaries ([2]; without starvation, peak at 1.5 h, 200 μM): 2.1×10^8 CFU per ml; % Reduction in CFU per capillary compared to the control ([3]; heated (80° C. for 15 min) P. piscicida homogenate, listed as Methionine): 48.72%; % Reduction in CFU per capillary compared to the control ([3]; untreated P. piscicida homogenate, listed as Methionine): 58.15% |
| C[S+](C)CCC(=O)[O-] [DMSP, Dimethylsulfoniopropionate] | ++ | 8.2 | marked deformation in the periphery of the motile colony | + | − | ++ | + | 11% and 11.68% | 3.10 (±0.16) CFU · 10^4 | 54% and 54.01% | 3.33 (±0.15) CFU · 10^4 | 3.33×10^4 CFU per ml | loss of DMSP ([4]; 200 μM DMSP in CB heated to either 80 or 100° C. for 15 min): < 2%; concentration of DMSP in P. piscicida homogenates ([4]; after the homogenate was heated, level of detectability): < 1 µM; mean concentration of DMSP in P. piscicida homogenates ([4]; untreated homogenate): 8.21 ± 1.2 µM |
| O=C(O)CCC(=O)O [Succinate] | + | none were found to be significant chemoattractants | mild response | ++ | + | + | − |  |  |  |  |  | chemotactic response of TM1040 in plate assay ([1]; glucose background (BM glucose)): moderate response |
| NCCCC[C@H](N)C(=O)O [lysine] | + | ca. 3.5 |  | − | − | + | − |  |  |  |  |  |  |
| O=C(O)CC(O)(CC(=O)O)C(=O)O [Citrate] | ++ | none were found to be significant chemoattractants | strong positive response |  |  |  |  |  |  |  |  |  |  |
| CC(C)[C@H](N)C(=O)O [valine] | ++ | 6.1 | significant effects on the periphery of the motile colony | + | − | ++ | + | 74% | 0.91 (±0.24) CFU · 10^4 | 78% | 1.53 (±0.15) CFU · 10^4 | 1.53×10^4 CFU per ml | % Reduction in CFU per capillary compared to the control ([3]; heated (80° C. for 15 min) P. piscicida homogenate, listed as Valine): 74.07%; % Reduction in CFU per capillary compared to the control ([3]; untreated P. piscicida homogenate, listed as Valine): 78.87% |
